Reference: patent publication US11446287B2, “Compounds and methods for EP300 or CBP modulation and indications therefor” (Opna Immuno-Oncology SA, priority 2019, dated 2022)

What follows are molecules tested against T1, Recombinant human CBP containing the bromodomain (CBP-BD (1043-1159)) (Homo sapiens, UniProt Q92793) (assay: CBP Alphascreen binding assay). Conditions: read-out: CREBBP (CBP) IC50.
T1 construct: Recombinant human CBP bromodomain (CBP-BD (1043-1159)); made in house; host or cells: E. coli BL21-CodonPlus (DE3), modified pET vector
In short: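 Buffer: 50 mM HEPES pH 7.5, 50 mM NaCl, 0.01% BSA, 0.01% Triton X-100, 2 mM DTT. The signal was normalised to plate controls and fitted with a four-parameter curve to give IC50.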

T1 sequence (Q92793 1081-1197): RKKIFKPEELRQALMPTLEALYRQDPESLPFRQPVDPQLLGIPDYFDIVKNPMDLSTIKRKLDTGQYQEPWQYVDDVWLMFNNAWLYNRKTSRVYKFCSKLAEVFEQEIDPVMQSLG

Compound	IC50 [µM]
Cc1noc(C)c1-c1cnc2c(c1)c(-c1ccc(C(=O)O)cc1OCC(F)(F)F)cn2-c1ccccc1 [P-0278, 4-(5-(3,5-dimethylisoxazol-4-yl)-1-phenyl-1H-pyrrolo[2,3-b]pyridin-3-yl)-3-(2,2,2-trifluoroethoxy)benzoic acid]	0.0001 to 1
Cc1noc(C)c1-c1cnc2c(c1)c(-c1ccc(C(=O)O)cc1OC(F)(F)F)cn2-c1ccc(F)cc1 [P-0279, 4-(5-(3,5-dimethylisoxazol-4-yl)-1-(4-fluorophenyl)-1H-pyrrolo[2,3-b]pyridin-3-yl)-3-(trifluoromethoxy)benzoic acid]	0.0001 to 1
Cc1noc(C)c1-c1cnc2c(c1)c(-c1cnn(CC(=O)O)c1)cn2C(C1CC1)C1CC1 [P-0280, 2-(4-(1-(dicyclopropylmethyl)-5-(3,5-dimethylisoxazol-4-yl)-1H-pyrrolo[2,3-b]pyridin-3-yl)-1H-pyrazol-1-yl)acetic acid]	0.0001 to 1
Cc1noc(C)c1-c1cnc2c(c1)c(-c1ccc(C(=O)O)cc1OC(F)(F)F)cn2-c1cnc(N2CCC2)nc1 [P-0281, 4-(1-(2-(azetidin-1-yl)pyrimidin-5-yl)-5-(3,5-dimethylisoxazol-4-yl)-1H-pyrrolo[2,3-b]pyridin-3-yl)-3-(trifluoromethoxy)benzoic acid]	0.0001 to 1
Cc1noc(C)c1-c1cnc2c(c1)c(-c1ccc(C(=O)O)cc1OC(F)(F)F)cn2-c1ccc(S(C)(=O)=O)cc1 [P-0282, 4-(5-(3,5-dimethylisoxazol-4-yl)-1-(4-(methylsulfonyl)phenyl)-1H-pyrrolo[2,3-b]pyridin-3-yl)-3-(trifluoromethoxy)benzoic acid]	0.0001 to 1
Cc1noc(C)c1-c1cnc2c(c1)c(-c1c(Cl)cc(C(=O)O)cc1OC(C)C)cn2C(C1CC1)C1CC1 [P-0283, 3-chloro-4-(1-(dicyclopropylmethyl)-5-(3,5-dimethylisoxazol-4-yl)-1H-pyrrolo[2,3-b]pyridin-3-yl)-5-isopropoxybenzoic acid]	0.0001 to 1
Cc1noc(C)c1-c1cnc2c(c1)c(-c1cc(C(=O)O)ccc1OC(F)(F)F)cn2C(C1CC1)C1CC1 [P-0284, 3-(1-(dicyclopropylmethyl)-5-(3,5-dimethylisoxazol-4-yl)-1H-pyrrolo[2,3-b]pyridin-3-yl)-4-(trifluoromethoxy)benzoic acid]	0.0001 to 1
Cc1noc(C)c1-c1cnc2c(c1)c(-c1ccc(C(=O)O)cc1OC(F)(F)F)cn2[C@H]1CCOC1 [P-0285, (S)-4-(5-(3,5-dimethylisoxazol-4-yl)-1-(tetrahydrofuran-3-yl)-1H-pyrrolo[2,3-b]pyridin-3-yl)-3-(trifluoromethoxy)benzoic acid]	0.0001 to 1
Cc1noc(C)c1-c1cnc2c(c1)c(-c1ccc(C(=O)O)cc1OC(F)(F)F)cn2[C@@H]1CCOC1 [P-0286, (R)-4-(5-(3,5-dimethylisoxazol-4-yl)-1-(tetrahydrofuran-3-yl)-1H-pyrrolo[2,3-b]pyridin-3-yl)-3-(trifluoromethoxy)benzoic acid]	0.0001 to 1
CCn1cc(-n2cc(-c3ccc(C(=O)O)cc3OC(F)(F)F)c3cc(-c4c(C)noc4C)cnc32)c(C)n1 [P-0287, 4-(5-(3,5-dimethylisoxazol-4-yl)-1-(1-ethyl-3-methyl-1H-pyrazol-4-yl)-1H-pyrrolo[2,3-b]pyridin-3-yl)-3-(trifluoromethoxy)benzoic acid]	0.0001 to 1
Cc1nn(C(F)F)cc1-n1cc(-c2ccc(C(=O)O)cc2OC(F)(F)F)c2cc(-c3c(C)noc3C)cnc21 [P-0288, 4-(1-(1-(difluoromethyl)-3-methyl-1H-pyrazol-4-yl)-5-(3,5-dimethylisoxazol-4-yl)-1H-pyrrolo[2,3-b]pyridin-3-yl)-3-(trifluoromethoxy)benzoic acid]	0.0001 to 1
Cc1noc(C)c1-c1cnc2c(c1)c(-c1ccc(C(=O)O)cc1OC(F)(F)F)cn2-c1cnn(C(F)F)c1C [P-0289, 4-(1-(1-(difluoromethyl)-5-methyl-1H-pyrazol-4-yl)-5-(3,5-dimethylisoxazol-4-yl)-1H-pyrrolo[2,3-b]pyridin-3-yl)-3-(trifluoromethoxy)benzoic acid]	0.0001 to 1
Cc1noc(C)c1-c1cnc2c(c1)c(-c1ccc(C(=O)O)cc1OC(F)(F)F)cn2C1CCNCC1 [P-0290, 4-(5-(3,5-dimethylisoxazol-4-yl)-1-(piperidin-4-yl)-1H-pyrrolo[2,3-b]pyridin-3-yl)-3-(trifluoromethoxy)benzoic acid]	0.0001 to 1
CC(=O)N1CCC(n2cc(-c3ccc(C(=O)O)cc3OC(F)(F)F)c3cc(-c4c(C)noc4C)cnc32)CC1 [P-0291, 4-(1-(1-acetylpiperidin-4-yl)-5-(3,5-dimethylisoxazol-4-yl)-1H-pyrrolo[2,3-b]pyridin-3-yl)-3-(trifluoromethoxy)benzoic acid]	0.0001 to 1
Cc1noc(C)c1-c1cnc2c(c1)c(-c1ccc(C(=O)O)cc1OC(F)(F)F)cn2C1CCN(S(C)(=O)=O)CC1 [P-0292, 4-(5-(3,5-dimethylisoxazol-4-yl)-1-(1-(methylsulfonyl)piperidin-4-yl)-1H-pyrrolo[2,3-b]pyridin-3-yl)-3-(trifluoromethoxy)benzoic acid]	0.0001 to 1
Cc1noc(C)c1-c1cnc2c(c1)c(-c1ccc(C(=O)O)cc1OC(F)(F)F)cn2-c1ccncc1F [P-0293, 4-(5-(3,5-dimethylisoxazol-4-yl)-1-(3-fluoropyridin-4-yl)-1H-pyrrolo[2,3-b]pyridin-3-yl)-3-(trifluoromethoxy)benzoic acid]	0.0001 to 1
Cc1noc(C)c1-c1cnc2c(c1)c(-c1ccc(C(=O)O)cc1OC(F)(F)F)cn2-c1cnn(CC(C)(C)O)c1 [P-0294, 4-(5-(3,5-dimethylisoxazol-4-yl)-1-(1-(2-hydroxy-2-methylpropyl)-1H-pyrazol-4-yl)-1H-pyrrolo[2,3-b]pyridin-3-yl)-3-(trifluoromethoxy)benzoic acid]	0.0001 to 1
CCOc1cc(C(=O)O)ncc1-c1cn(-c2ccc(F)cc2F)c2ncc(-c3c(C)noc3C)cc12 [P-0295, 5-(1-(2,4-difluorophenyl)-5-(3,5-dimethylisoxazol-4-yl)-1H-pyrrolo[2,3-b]pyridin-3-yl)-4-ethoxypicolinic acid]	0.0001 to 1
CCOc1c(F)c(C(=O)O)c(F)c(OCC)c1-c1cn(-c2ccc(F)cc2F)c2ncc(-c3c(C)noc3C)cc12 [P-0296, 4-(1-(2,4-difluorophenyl)-5-(3,5-dimethylisoxazol-4-yl)-1H-pyrrolo[2,3-b]pyridin-3-yl)-3,5-diethoxy-2,6-difluorobenzoic acid]	0.0001 to 1
CCOc1cc(C(=O)O)c(F)c(OCC)c1-c1cn(-c2ccc(F)cc2F)c2ncc(-c3c(C)noc3C)cc12 [P-0297, 4-(1-(2,4-difluorophenyl)-5-(3,5-dimethylisoxazol-4-yl)-1H-pyrrolo[2,3-b]pyridin-3-yl)-3,5-diethoxy-2-fluorobenzoic acid]	0.0001 to 1
Cc1noc(C)c1-c1cnc2c(-c3ccccc3)cn(-c3c(OCC(F)(F)F)cc(C(=O)O)cc3OCC(F)(F)F)c2c1 [P-0298, 4-(6-(3,5-dimethylisoxazol-4-yl)-3-phenyl-1H-pyrrolo[3,2-b]pyridin-1-yl)-3,5-bis(2,2,2-trifluoroethoxy)benzoic acid]	0.0001 to 1
Cc1noc(C)c1-c1cnc2c(c1)c(-c1ccc(C(=O)O)cc1OC(C)C)cn2-c1cnn(CC(C)(C)O)c1 [P-0299, 4-(5-(3,5-dimethylisoxazol-4-yl)-1-(1-(2-hydroxy-2-methylpropyl)-1H-pyrazol-4-yl)-1H-pyrrolo[2,3-b]pyridin-3-yl)-3-isopropoxybenzoic acid]	0.0001 to 1
